Measured values published in ChEMBL document CHEMBL6083234, “Discovery of novel 1,4-dicarbonylthiosemicarbazides as DNA gyrase inhibitors for the treatment of MRSA infection” (Eur J Med Chem, 2024).
Values after ≈ are worked out from the molar mass of the structure shown. Active and inactive are the calls of the source. No cut-off for these calls is given here.

Legend:
[1] = system: Staphylococcus aureus; assay: Antibacterial activity against methicillin-resistant Staphylococcus aureus clinical isolate 16-1 infected in kunming mouse model assessed as survival rate at 20 mg/kg, iv pre-infected with bacteria for 10 mins followed by compound administration and measured for 7 days (reference value: 0 %); format: functional; details: 168 h, time 7 day
[2] = system: Staphylococcus aureus; assay: Antibacterial activity against Staphylococcus aureus ATCC 29213 assessed as inhibition of bacterial growth incubated for 18 to 24 hrs by broth microdilution method; format: functional; details: time 18-24 hrs
[3] = Cytotoxicity against human HepG2 cells assessed as reduction in cell viability incubated for 48 hrs by CCK8 assay; format: toxicity, cell-based
[4] = Cytotoxicity against HUVEC cells assessed as reduction in cell viability incubated for 48 hrs by CCK8 assay; format: toxicity, cell-based; details: human
[5] = Selectivity index, ratio of CC50 for cytotoxicity against human HepG2 cells to MIC for antibacterial activity against Staphylococcus aureus ATCC 29213; format: toxicity, cell-based; details: read-out: Selectivity Index
[6] = Selectivity index, ratio of CC50 for cytotoxicity against HUVEC cells to MIC for antibacterial activity against Staphylococcus aureus ATCC 29213; format: toxicity, cell-based; details: human, read-out: Selectivity Index
[7] = system: Staphylococcus aureus; assay: Bacteriostatic activity against Staphylococcus aureus ATCC 29213 assessed as inhibition of bacterial growth at 1 times of MIC measured after 24 hrs by time-kill assay; format: functional, organism-based
[8] = system: Staphylococcus aureus; assay: Bacteriostatic activity against Staphylococcus aureus ATCC 29213 assessed as inhibition of bacterial growth at 4 times of MIC measured after 24 hrs by time-kill assay; format: functional, organism-based
[9] = system: Staphylococcus aureus; assay: Bactericidal activity against Staphylococcus aureus ATCC 29213 at 16 times of MIC measured after 24 hrs by time-kill assay; format: functional, organism-based
[10] = system: Staphylococcus aureus; assay: Bacteriostatic activity against Staphylococcus aureus ATCC 29213 assessed as log reduction in bacterial colony counts at 4 times of MIC measured after 24 hrs by time-kill assay; format: functional
[11] = system: Staphylococcus aureus; assay: Bactericidal activity against Staphylococcus aureus ATCC 29213 assessed as log reduction in bacterial colony counts at 16 times of MIC measured after 24 hrs by time-kill assay; format: functional
[12] = system: Staphylococcus aureus; assay: Antibacterial activity against methicillin-resistant Staphylococcus aureus (15 strains) assessed as inhibition of bacterial growth incubated for 18 to 24 hrs by broth microdilution method; format: functional; details: time 18-24 hrs
[13] = system: Staphylococcus aureus; assay: Antibacterial activity against vancomycin intermediate and methicillin-resistant Staphylococcus aureus (2 strains) assessed as inhibition of bacterial growth incubated for 18 to 24 hrs by broth microdilution method; format: functional; details: time 18-24 hrs
[14] = system: Staphylococcus aureus; assay: Antibacterial activity against methicillin-sensitive Staphylococcus aureus (8 strains) assessed as inhibition of bacterial growth incubated for 18 to 24 hrs by broth microdilution method; format: functional; details: time 18-24 hrs
[15] = system: Staphylococcus epidermidis; assay: Antibacterial activity against methicillin-resistant Staphylococcus epidermidis (11 strains) assessed as inhibition of bacterial growth incubated for 18 to 24 hrs by broth microdilution method; format: functional; details: time 18-24 hrs
[16] = system: Staphylococcus epidermidis; assay: Antibacterial activity against methicillin-sensitive Staphylococcus epidermidis (8 strains) assessed as inhibition of bacterial growth incubated for 18 to 24 hrs by broth microdilution method; format: functional; details: time 18-24 hrs
[17] = system: Enterococcus faecalis; assay: Antibacterial activity against Enterococcus faecalis (8 strains) assessed as inhibition of bacterial growth incubated for 18 to 24 hrs by broth microdilution method; format: functional; details: time 18-24 hrs
[18] = system: Enterococcus faecium; assay: Antibacterial activity against Enterococcus faecium (8 strains) assessed as inhibition of bacterial growth incubated for 18 to 24 hrs by broth microdilution method; format: functional; details: time 18-24 hrs
[19] = Metabolic stability in mouse liver microsomes assessed as half-life at 1 uM measured upto 60 mins in presence of NADPH by LC-MS/MS analysis; format: ADME, Microsome
[20] = Stability in mouse plasma assessed as half-life at 1 uM measured upto 120 mins by LC-MS/MS analysis; format: ADME, cell-free
[21] = system: Staphylococcus aureus; assay: Antibacterial activity against methicillin-resistant Staphylococcus aureus clinical isolate 16-1 infected in kunming mouse model assessed as survival rate at 14 mg/kg, iv pre-infected with bacteria for 10 mins followed by compound administration and measured for 7 days (reference value: 0 %); format: functional; details: 168 h, time 7 day
[22] = system: Staphylococcus aureus; assay: Antibacterial activity against methicillin-resistant Staphylococcus aureus clinical isolate 16-1 infected in kunming mouse model assessed as survival rate at 10 mg/kg, iv pre-infected with bacteria for 10 mins followed by compound administration and measured for 7 days (reference value: 0 %); format: functional; details: 168 h, time 7 day
[23] = system: Staphylococcus aureus; assay: Antibacterial activity against methicillin-resistant Staphylococcus aureus clinical isolate 16-1 infected in kunming mouse model assessed as survival rate at 7 mg/kg, iv pre-infected with bacteria for 10 mins followed by compound administration and measured for 7 days (reference value: 0 %); format: functional; details: 168 h, time 7 day
[24] = target: T1, DNA gyrase (Staphylococcus aureus, UniProt P0A0K8+P20831); assay: Inhibition of Staphylococcus aureus DNA gyrase ATP hydrolysis activity using pBR322 DNA as substrate incubated for 30 mins in presence of ATP by ADP-Glo reagent based assay; format: protein-complex assay
T1 sequence (P0A0K8 whole entry): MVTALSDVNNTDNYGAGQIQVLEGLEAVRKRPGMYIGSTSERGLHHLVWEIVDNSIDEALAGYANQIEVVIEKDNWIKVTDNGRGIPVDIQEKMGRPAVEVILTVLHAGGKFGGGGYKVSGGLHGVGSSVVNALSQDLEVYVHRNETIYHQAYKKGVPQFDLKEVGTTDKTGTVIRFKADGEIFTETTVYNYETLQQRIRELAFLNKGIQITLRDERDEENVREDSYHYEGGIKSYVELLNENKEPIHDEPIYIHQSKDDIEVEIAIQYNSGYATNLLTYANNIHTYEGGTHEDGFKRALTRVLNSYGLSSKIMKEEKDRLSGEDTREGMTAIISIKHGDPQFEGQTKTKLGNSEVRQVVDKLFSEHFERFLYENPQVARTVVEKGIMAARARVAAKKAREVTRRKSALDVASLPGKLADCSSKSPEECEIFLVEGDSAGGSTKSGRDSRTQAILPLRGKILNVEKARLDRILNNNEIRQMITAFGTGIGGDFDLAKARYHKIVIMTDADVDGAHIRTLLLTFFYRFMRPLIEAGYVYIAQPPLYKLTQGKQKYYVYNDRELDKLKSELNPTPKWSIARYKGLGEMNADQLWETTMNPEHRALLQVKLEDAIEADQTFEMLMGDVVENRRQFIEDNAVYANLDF
T1 sequence (P20831 whole entry): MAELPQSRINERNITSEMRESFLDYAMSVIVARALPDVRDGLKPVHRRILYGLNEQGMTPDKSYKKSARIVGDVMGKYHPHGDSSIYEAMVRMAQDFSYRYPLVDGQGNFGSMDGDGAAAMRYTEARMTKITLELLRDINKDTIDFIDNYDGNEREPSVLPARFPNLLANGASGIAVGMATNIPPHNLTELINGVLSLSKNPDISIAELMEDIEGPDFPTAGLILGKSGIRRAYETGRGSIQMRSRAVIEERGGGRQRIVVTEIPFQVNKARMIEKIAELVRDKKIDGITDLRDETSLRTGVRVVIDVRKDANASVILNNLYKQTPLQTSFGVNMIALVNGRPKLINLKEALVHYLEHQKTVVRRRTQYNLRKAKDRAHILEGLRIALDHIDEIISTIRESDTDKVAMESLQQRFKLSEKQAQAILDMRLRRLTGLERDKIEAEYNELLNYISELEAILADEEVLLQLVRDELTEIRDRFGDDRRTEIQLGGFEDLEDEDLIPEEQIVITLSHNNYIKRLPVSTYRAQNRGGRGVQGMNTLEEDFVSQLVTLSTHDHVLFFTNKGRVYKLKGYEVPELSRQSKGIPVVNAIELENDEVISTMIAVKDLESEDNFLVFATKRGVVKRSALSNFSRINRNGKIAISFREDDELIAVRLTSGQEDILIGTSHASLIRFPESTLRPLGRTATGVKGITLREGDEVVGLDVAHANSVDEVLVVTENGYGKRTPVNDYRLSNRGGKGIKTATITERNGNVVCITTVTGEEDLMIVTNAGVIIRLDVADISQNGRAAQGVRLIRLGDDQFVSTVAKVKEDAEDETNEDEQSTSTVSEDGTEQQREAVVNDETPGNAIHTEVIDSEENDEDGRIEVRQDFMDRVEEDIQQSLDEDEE

[25] = target: DNA gyrase (Staphylococcus aureus) (UniProt P0A0K8+P20831); assay: Inhibition of Staphylococcus aureus DNA gyrase supercoiling using […] pBR322 DNA as substrate assessed as reduction in supercoiled DNA incubated for 30 mins in presence of ATP by agarose gel electrophoresis; format: protein-complex assay; details: dose 0.01-100 µM
DNA gyrase (Staphylococcus aureus), sequence (P0A0K8 2-644 limits assumed): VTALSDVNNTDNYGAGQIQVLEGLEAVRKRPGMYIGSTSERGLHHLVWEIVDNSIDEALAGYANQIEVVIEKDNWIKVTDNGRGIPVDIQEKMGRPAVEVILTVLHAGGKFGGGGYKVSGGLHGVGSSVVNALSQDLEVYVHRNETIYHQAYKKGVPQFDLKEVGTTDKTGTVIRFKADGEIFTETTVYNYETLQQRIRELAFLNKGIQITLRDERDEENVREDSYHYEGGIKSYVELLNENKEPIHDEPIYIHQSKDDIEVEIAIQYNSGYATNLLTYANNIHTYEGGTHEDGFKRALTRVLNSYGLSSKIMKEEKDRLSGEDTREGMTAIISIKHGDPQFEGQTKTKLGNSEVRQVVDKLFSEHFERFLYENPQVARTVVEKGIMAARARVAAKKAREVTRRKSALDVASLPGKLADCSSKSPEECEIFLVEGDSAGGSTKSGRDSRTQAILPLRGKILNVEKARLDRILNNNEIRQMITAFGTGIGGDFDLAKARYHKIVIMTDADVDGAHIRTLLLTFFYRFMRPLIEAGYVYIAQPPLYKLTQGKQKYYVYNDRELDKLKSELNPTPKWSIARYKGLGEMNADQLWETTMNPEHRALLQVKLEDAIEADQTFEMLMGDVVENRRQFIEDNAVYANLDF
DNA gyrase (Staphylococcus aureus), sequence (P20831 whole entry partner): as the sequence (P20831 whole entry) above

[26] = system: Staphylococcus aureus; assay: Antibacterial activity against methicillin-resistant Staphylococcus aureus incubated for 18 hrs by CLSI protocol based broth microdilution method; format: functional
[27] = target: T2, Ribonuclease P protein component (Staphylococcus aureus, UniProt P0A0H5); assay: Inhibition of Staphylococcus aureus RnpA-mediated RNA degradation incubated for 20 mins by fluorescence-based high through-put assay
T2 sequence (P0A0H5 whole entry): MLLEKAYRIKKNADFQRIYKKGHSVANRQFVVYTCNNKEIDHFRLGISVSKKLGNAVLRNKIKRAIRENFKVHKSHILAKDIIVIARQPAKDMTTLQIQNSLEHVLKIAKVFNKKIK

[28] = system: Staphylococcus aureus; assay: Antibacterial activity against Staphylococcus aureus clinical isolates incubated for 18 hrs by Mueller-Hinton broth based assay; format: functional
[29] = target: T1, DNA gyrase; assay: Inhibition of Staphylococcus aureus DNA gyrase using supercoiled pBR322 as substrate preincubated for 1 hrs followed by proteinase K addition and measured after 30 mins by agarose gel electrophoresis; format: protein-complex assay
[30] = target: T3, Topoisomerase IV (Staphylococcus aureus, UniProt P0C1S7+P0C1U9); assay: Inhibition of Staphylococcus aureus DNA topoisomerase 4 using linear pBR322 as substrate preincubated for 10 mins followed by ATP addition and measured after 1 hrs ATP hydrolysis assay; format: protein-complex assay
T3 sequence (P0C1U9 whole entry): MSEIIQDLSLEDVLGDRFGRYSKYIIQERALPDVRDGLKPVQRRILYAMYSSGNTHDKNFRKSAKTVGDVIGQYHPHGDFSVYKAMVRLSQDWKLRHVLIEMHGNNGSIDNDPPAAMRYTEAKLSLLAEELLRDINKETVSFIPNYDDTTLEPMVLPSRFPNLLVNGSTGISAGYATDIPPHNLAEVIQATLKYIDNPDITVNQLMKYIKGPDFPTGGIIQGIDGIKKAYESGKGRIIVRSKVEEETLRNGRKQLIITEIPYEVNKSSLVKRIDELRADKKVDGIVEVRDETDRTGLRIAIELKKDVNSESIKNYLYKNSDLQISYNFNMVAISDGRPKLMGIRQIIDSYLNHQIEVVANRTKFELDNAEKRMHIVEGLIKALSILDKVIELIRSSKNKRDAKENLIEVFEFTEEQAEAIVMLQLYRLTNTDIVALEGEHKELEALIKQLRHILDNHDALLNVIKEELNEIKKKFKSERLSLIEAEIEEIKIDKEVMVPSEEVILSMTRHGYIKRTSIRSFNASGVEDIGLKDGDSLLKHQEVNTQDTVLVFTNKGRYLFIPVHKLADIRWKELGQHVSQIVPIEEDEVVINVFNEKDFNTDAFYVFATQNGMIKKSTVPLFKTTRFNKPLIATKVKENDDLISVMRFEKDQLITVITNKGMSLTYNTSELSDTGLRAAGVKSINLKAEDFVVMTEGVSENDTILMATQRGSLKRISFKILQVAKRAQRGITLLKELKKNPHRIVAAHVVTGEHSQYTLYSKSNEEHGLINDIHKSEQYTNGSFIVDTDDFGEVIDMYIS
T3 sequence (P0C1S7 whole entry): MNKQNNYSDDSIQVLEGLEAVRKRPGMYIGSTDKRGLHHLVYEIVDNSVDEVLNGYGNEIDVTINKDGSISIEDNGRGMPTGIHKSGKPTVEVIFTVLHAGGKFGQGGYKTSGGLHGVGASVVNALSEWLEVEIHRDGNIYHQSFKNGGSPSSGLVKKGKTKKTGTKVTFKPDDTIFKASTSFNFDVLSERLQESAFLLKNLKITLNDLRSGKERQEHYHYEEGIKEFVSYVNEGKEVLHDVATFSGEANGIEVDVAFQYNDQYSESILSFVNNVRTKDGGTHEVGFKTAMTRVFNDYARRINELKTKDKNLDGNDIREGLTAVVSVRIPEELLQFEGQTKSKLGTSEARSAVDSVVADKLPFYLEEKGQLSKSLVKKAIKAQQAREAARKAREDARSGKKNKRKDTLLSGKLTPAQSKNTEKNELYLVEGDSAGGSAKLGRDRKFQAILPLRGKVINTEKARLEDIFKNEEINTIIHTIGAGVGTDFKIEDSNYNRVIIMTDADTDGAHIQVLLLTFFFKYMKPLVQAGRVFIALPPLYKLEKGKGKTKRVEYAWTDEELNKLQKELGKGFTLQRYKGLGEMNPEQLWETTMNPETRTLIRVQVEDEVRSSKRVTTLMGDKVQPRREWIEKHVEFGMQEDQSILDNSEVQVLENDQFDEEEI

[31] = system: Staphylococcus aureus; assay: Antibacterial activity against methicillin-resistant Staphylococcus aureus clinical isolate 16-1 infected in kunming mouse model assessed as survival rate at 5 mg/kg, iv pre-infected with bacteria for 10 mins followed by compound administration and measured for 7 days (reference value: 0 %); format: functional; details: 168 h, time 7 day
[32] = system: Staphylococcus aureus; assay: Antibacterial activity against methicillin-resistant Staphylococcus aureus clinical isolate 16-1 infected in kunming mouse model assessed as survival rate at 3.5 mg/kg, iv pre-infected with bacteria for 10 mins followed by compound administration and measured for 7 days (reference value: 0 %); format: functional; details: 168 h, time 7 day
[33] = system: Staphylococcus aureus; assay: Antibacterial activity against Staphylococcus aureus ATCC 25923 incubated for 24 hrs by CLSI protocol based broth microdilution method; format: functional
[34] = system: Staphylococcus aureus; assay: Antibacterial activity against methicillin-resistant Staphylococcus aureus incubated for 24 hrs by CLSI protocol based broth microdilution method; format: functional
[35] = target: T1, DNA gyrase; assay: Inhibition of Staphylococcus aureus DNA gyrase supercoiling using supercoiled pBR322 DNA as substrate incubated for 60 mins by ethidium bromide staining based analysis; format: protein-complex assay
[36] = target: T3, Topoisomerase IV; assay: Inhibition of Staphylococcus aureus DNA topoisomerase 4 decatenation activity incubated for 1 hrs by ethidium bromide staining based analysis; format: protein-complex assay

CCCCCOc1ccc(C(=O)NNC(=S)NC(C)=O)cc1
survival at 20 mg/kg [1]: 50% | MIC [2]: 2.41 µM | CC50 at 48 h [3]: 2.37 µM | CC50 at 48 h [4]: 6.46 µM | selectivity ratio [5]: 0.98 | selectivity ratio [6]: 2.68 | Activity [7]: Active | Activity [8]: Active | Activity [9]: Active | log(activity) [10]: 2.51 | log(activity) [11]: 6.41 | MIC [12]: 2 µg/mL (≈ 6.18 µM) | MIC [13]: 2 µg/mL (≈ 6.18 µM) | MIC [14]: 1 µg/mL (≈ 3.09 µM) | MIC [15]: 0.5 µg/mL (≈ 1.55 µM) | MIC [16]: 1 µg/mL (≈ 3.09 µM) | MIC [17]: 4 µg/mL (≈ 12.4 µM) | MIC [18]: 2 µg/mL (≈ 6.18 µM) | half-life at 1 µM [19]: 28.3 min | half-life at 1 µM [20]: > 120 min | survival at 14 mg/kg [21]: 20% | survival at 10 mg/kg [22]: 20% | survival at 7 mg/kg [23]: 10% | IC50 [24]: 1.81 µM | inhibition [25]: Dose-dependent-effect

Cc1ccc(C(=O)NC(=S)NNC(=O)c2ccc(Cl)cc2)cc1C
MIC [26]: 16 µg/mL (≈ 44.2 µM) | IC50 [27]: > 50 µM

O=C(NC(=S)NNC(=O)c1cc2ccccc2[nH]1)c1ccccc1
MIC [28]: 8 µg/mL (≈ 23.6 µM) | IC50 [29]: > 50 µM | IC50 [30]: > 10 µM

CN[C@H](CC(C)C)C(=O)N[C@H]1C(=O)N[C@@H](CC(N)=O)C(=O)N[C@H]2C(=O)N[C@H]3C(=O)N[C@H](C(=O)N[C@H](C(=O)O)c4cc(O)cc(O)c4-c4cc3ccc4O)[C@H](O)c3ccc(c(Cl)c3)Oc3cc2cc(c3O[C@@H]2O[C@H](CO)[C@@H](O)[C@H](O)[C@H]2O[C@H]2C[C@](C)(N)[C@H](O)[C@H](C)O2)Oc2ccc(cc2Cl)[C@H]1O [VANCOMYCIN]
MIC [2]: 1.56 µg/mL | MIC [12]: 0.25 µg/mL (≈ 0.173 µM) | survival at 10 mg/kg [22]: 60% | survival at 7 mg/kg [23]: 50% | survival at 5 mg/kg [31]: 50% | survival at 3.5 mg/kg [32]: 20%

O=C(NC(=S)NNC(=O)c1cccc(Cl)c1Cl)c1ccc([N+](=O)[O-])cc1
MIC [33]: 1.95 µg/mL (≈ 4.72 µM) | MIC [34]: > 62.5 µg/mL | IC50 [35]: > 100 µM | IC50 [36]: > 100 µM
